Test results reported in article PMC4414177, “A novel orally active water-soluble inhibitor of human glutathione transferase exerts a potent and selective antitumor activity against human melanoma xenografts” (Oncotarget, 2015).
Converted amounts (≈) assume the structure as drawn.

Key:
[1] = tested on: mice bearing human tumor xenografts; experiment: Toxicity in tumor-bearing mice (net BW variation, macroscopic autopsy); type: in vivo; settings: during treatment, MC3181 8 mg/kg/day, TMZ 100 mg/kg/day i.p.
Description: Toxicity was also evaluated in tumor-bearing mice on the basis of macroscopic autopsy findings, mainly in terms of alteration to the size and color of vital organs, and net BW reduction. The percentage of net BW variation, between the first day of treatment and sacrifice day (or day of interest), was evaluated according to the following equation: % net BW variation =net BW at observation day −net BW at first day of treatment/net BW at first day of treatment ×100 (Eq. 2)

[2] = tested on: A375 human melanoma; experiment: A375 fragment xenograft model, antitumor efficacy; type: in vivo, mice; settings: MC3181 i.v. 8mg/kg/d q1dx5 three weeks
Description: With regard to the in vivo fragment tumor model, A375 cells were injected (1×10^7) subcutaneously (s.c.) into the right flank of an athymic Nude-Foxn1nu female mouse, and the established primary tumor was then removed and cut into fragments (2–3 mm diameter) and implanted s.c. into recipient mice. Animals were randomly divided in groups of 7 mice and treatment was initiated when a tumor volume of 0.12 ± 0.01 cm^3 (mean ± SEM) was reached.
The reference drug temozolomide, dissolved in DMSO/PBS 1:1 to a final concentration of 10 mg/ml, was administered i.p. q1dx5 at a dose of 100mg/kg/day.
Primary tumor growth was determined for all animals by caliper measurement (minor and major axis length), three times per week, until they were sacrificed. Primary tumor volume was determined using the following equation: V (cm^3)=(α^2×β)/2 (Eq. 3)
The efficacy of the treatment was also analyzed by calculation of the percentage of Increase in Life Span (% ILS), since this analysis gives an evidence of clinical potency. Survival endpoint for each animal was fixed at the day when tumor volume reached 1.0 cm^3 (A375) or 0.4 cm^3 (SK23-MEL and G-361), and data were used to plot the relative Kaplan-Meier curves. Treatment efficacy was then evaluated by comparing the Median Survival Time (MST) of treated group with the MST of control group, and expressed as percentage of ILS: % ILS=[100×(MSTtreated group)/(MSTcontrol group)]−100 (Eq. 4)
Treatment was considered effective when % ILS > 20%.

[3] = tested on: A375 cells; experiment: Caspase-3 activity in cell lysates; type: cell-based, human; settings: A375, pretreatment with SP600125 20 μM, 24 hrs exposure to MC3181
Description: Apoptosis was confirmed by measuring caspase-3 activity, at 25°C, in total cell lysates, using the model fluorescent peptide substrate N-Acetyl-Asp-Glu-Val-Asp-7-amido-4-trifluoromethylcoumarin (Ac-DEVD-AFC). […] Caspase activity was expressed as change in fluorescence per min, per 10^6 cells.

[4] = tested on: A375 cells; experiment: Cell cycle analysis (PI, flow cytometry); type: cell-based, human; settings: A375, pretreatment with SP600125 20 μM, 24 hrs exposure to MC3181
Description: A375 and SK23-MEL cells, were fixed with 70% ethanol overnight, stained with PI staining buffer ([…] and 1% Triton X-100) and analyzed by a FACSCalibur (BD Bioscence, San Jose, CA, USA). The percentage of early apoptotic, late apoptotic, and necrotic cells was determined by simultaneous staining of cells with PI (2 μg/ml) and Annexin V-FITC (0.5 μg/ml) (Sigma Aldrich), according to manufacturer's protocol. Flow cytometric data were analyzed by the FlowJo 8.8.6 software (Tree Stare, Inc, Ashland, OR, USA).

[5] = molecular target: T1, GSTP1-1 (Homo sapiens, UniProt P09211); experiment: Sigma complex formation in the GSTP1-1 active site; type: biochemical; settings: 40 μM compound, 40 μM GSTP1-1, 1 mM GSH, pH 6.5, 25°C
T1 construct: made in house; host or cells: Escherichia coli
T1 sequence (P09211 2-210 limits assumed): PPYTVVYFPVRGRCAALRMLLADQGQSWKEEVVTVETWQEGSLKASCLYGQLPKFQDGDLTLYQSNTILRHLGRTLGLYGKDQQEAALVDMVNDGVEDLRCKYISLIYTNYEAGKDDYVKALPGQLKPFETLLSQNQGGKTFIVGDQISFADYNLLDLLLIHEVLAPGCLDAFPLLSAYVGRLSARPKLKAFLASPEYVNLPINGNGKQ
Description: (§1) Human GSTM2-2, GSTP1-1, JNK1a2 and TRAF2 were expressed in Escherichia coli and purified as previously described; protein concentration was determined using the Lowry colorimetric assay. Unless specified otherwise, all chemicals were purchased from Sigma-Aldrich S.r.l. (Milan, Italy).
The ability of GSTP1-1 to stabilize the intermediate σ-complex formed between GSH and the compounds, was evaluated by recording the spectrum of each molecule (40 μM), in 0.1 M potassium phosphate buffer, pH 6.5, before and after the addition of a stoichiometric amount of GSTP1-1 and 1 mM GSH.

[6] = molecular target: T2, GSTM2-2 (Homo sapiens, UniProt P28161); experiment: Inhibition of GSTM2-2 conjugation activity; type: biochemical; settings: GSTM2-2 5 nM
T2 construct: made in house; host or cells: Escherichia coli
T2 sequence (P28161 1-218): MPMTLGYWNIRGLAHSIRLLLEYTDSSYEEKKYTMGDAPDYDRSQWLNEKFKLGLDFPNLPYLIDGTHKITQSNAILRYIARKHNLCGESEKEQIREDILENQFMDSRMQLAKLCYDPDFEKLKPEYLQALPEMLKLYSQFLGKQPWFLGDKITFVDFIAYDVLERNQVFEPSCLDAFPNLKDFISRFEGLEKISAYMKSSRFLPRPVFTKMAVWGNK
Description: as §1
(§2) GST activity was determined spectrophotometrically at 340 nm (ε = 9,600 M^−1 cm^−1), as previously reported. Inhibition experiments were performed by measuring GSTP1-1 (20 nM) or GSTM2-2 (5 nM) activities in the presence of various amounts of the selected NBD derivative (from 0.1 to 20 μM with GSTP1-1, and from 0.005 and 1 μM with GSTM2-2). Fifty percent inhibitory concentration (IC50) values were calculated by fitting the data to Equation 1, where ν is the percentage of the saturated binding sites; [P]t is the total GST concentration and [L]t is the total inhibitor concentration, assuming a 1:1 interaction stoichiometry between the inhibitor and one GST subunit, as well as that the binding sites are equal and independent.

[7] = molecular target: T1, GSTP1-1; experiment: Inhibition of GSTP1-1 conjugation activity; type: biochemical
Description: as §1
as §2, with “Inhibition experiments were performed by measuring GSTP1-1 (20 nM) or GSTM2-2 (5 nM) activities in the presence of various amounts of the selected NBD derivative (from 0.1 to 20 μM with GSTP1-1, and from 0.005 and 1 μM with GSTM2-2).” left out

[8] = Solubility limits in aqueous buffers; type: physicochemical; settings: thermodynamic from solid
Text: The solutions obtained were separated from any undissolved matter by centrifugation at 15,000 g and evaluated for drug concentration by recording compound absorbance at 425 nm, using molar extinction coefficients calculated at the same wavelength with diluted standard solutions, prepared in the same matrices.

[9] = Spontaneous reactivity with GSH (UV-visible spectra); type: physicochemical; settings: 40 μM compound, 1 mM GSH, 0.1 M potassium phosphate buffer pH 6.5, 25°C, within 1 h
Description: The spontaneous reactivity of the NBDs with GSH was determined at 25°C by recording the UV-visible spectrum of each compound (40 μM) incubated with 1 mM GSH, in 0.1 M potassium phosphate buffer, pH 6.5, at different time points.

[10] = tested on: A375; experiment: Cell growth inhibition, SRB assay; type: cell-based; settings: Homo sapiens, A-375, A375, 48 h
Description: (§3) The IC50 values for each compound were then evaluated by the SRB assay.

[11] = tested on: G-361; experiment: Cell growth inhibition, SRB assay; type: cell-based; settings: Homo sapiens, G-361, 48 h
Description: as §3

[12] = tested on: IST-MEL-1; experiment: Cell growth inhibition, SRB assay; type: cell-based; settings: Homo sapiens, IST-MEL-1, 48 h
Description: as §3

[13] = tested on: SK23-MEL; experiment: Cell growth inhibition, SRB assay; type: cell-based; settings: Homo sapiens, 48 h
Description: as §3

[14] = tested on: MALME-3M; experiment: Cell growth inhibition, SRB assay; type: cell-based; settings: Homo sapiens, 48 h
Description: as §3

With `Cn1nnc2c(C(N)=O)ncn2c1=O` [TMZ, temozolomide, reference compound] the “decrease in BW” value [1] was about 15%, the “%ILS” value ([2]; TMZ i.p. 100 mg/kg/d q1dx5) was 35% and the tumor growth ([2]; TMZ i.p. 100 mg/kg/d q1dx5, from day 13 onward, P < 0.05) was “significantly delayed tumor growth”.

With `Oc1c2ccccc2c2c3c(cccc13)N=N2` [SP600125, reference compound] the “reduction of the MC3181-elicited increase of caspase-3 activity” value [3] was “about 50%” and the “reduction of the MC3181-elicited increase in the number of cells in Sub-G1 phase” value [4] was “about 40%”.

In the case of `O=[N+]([O-])c1ccc(SCCOCCO)c2nonc12` [MC3165, 2-(2-((7-nitrobenzo[c][1,2,5]oxadiazol-4-yl)thio)ethoxy)ethan-1-ol], the “stability of the σ-complex, rank order” value [5] is reported as “NBDHEX > MC3181 > MC3165”, the IC50 [6] is reported as 51 ± 8 nM and the “Selectivity Index IC50GSTP1-1/IC50GSTM2-2” value [7] is reported as 78. It also gave an IC50 ([7]; GSTP1-1 20 nM) of 4000 ± 200 nM, a solubility ([8]; potassium phosphate buffer, pH 7.4, 0.1 M K-Phosphate buffer) of 2000 µM (≈ 571 µg/mL) and a solubility ([8]; sodium acetate buffer, pH 2.0, 0.1 M Na-Acetate Buffer) of 2000 µM (≈ 571 µg/mL). For the same compound, the solubility ([8]; sodium acetate buffer, pH 5.0, 0.1 M Na-Acetate Buffer) was 1900 µM (≈ 542 µg/mL) and the “decrease of the absorbance value at 430 nm after addition of excess GSH” value [9] was “less than 15%”.

`O=[N+]([O-])c1ccc(SCCCCCCO)c2nonc12` [NBDHEX, 6-((7-nitrobenzo[c][1,2,5]oxadiazol-4-yl)thio)hexan-1-ol, reference compound] gave an IC50 [6] of at most 10 nM, an IC50 [10] of 1450 ± 140 nM and an IC50 [11] of 550 ± 30 nM. For the same compound, the IC50 [12] was 1420 ± 50 nM, the IC50 [13] was 1190 ± 90 nM and the IC50 [14] was 1800 ± 120 nM.
